Test results taken from patent US12559496B2, “Imidazopyrimidines as modulators of IL-17” (Janssen Pharmaceutica NV, priority 2020, dated 2026).

How the values were obtained:
[1] = target: IL-17A(FLAG-Tagged): IL-17RA(His-Tagged) (Homo sapiens, UniProt Q16552, K93Q); test: IL-17A(FLAG-Tagged): IL-17RA(His-Tagged) Binding Disruption Eu-HTRF Assay; settings: disruption of IL-17A/IL-17RA binding; simple average if tested more than once
Outline: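 Compound (22-point 2-fold series) was preincubated 1 h at rt with FLAG-IL-17A, then His-IL-17RA, Eu-anti-FLAG and D2-anti-His were added in PBS/0.01% Triton X-100 with 200 mM KF for 2 h at rt. The ratio of 665 and 620 nm intensities versus concentration was fitted to one-site competition for IC50.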

[2] = test system: IL-17A-induced G-CSF production in human normal keratinocytes (NHK); test: NHK Assay: IL-17A-induced G-CSF production in human normal keratinocytes; format: cell-based; settings: Homo sapiens, Keratinocyte, 24 h, IL-17A 5 ng/mL, 5% FBS, simple average if tested more than once
Outline: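 Adult normal human keratinocytes treated 24 h at 37 °C with IL-17A (5 ng/mL final) pre-incubated 1 h at rt with titrated compound; 0.2% DMSO, 5% FBS. G-CSF in supernatant measured by HTRF against a standard curve to give IC50; viability checked by CellTiter-Glo.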

UniProt Q16552, sequence (Q16552 with tags, fused parts or gaps K93Q): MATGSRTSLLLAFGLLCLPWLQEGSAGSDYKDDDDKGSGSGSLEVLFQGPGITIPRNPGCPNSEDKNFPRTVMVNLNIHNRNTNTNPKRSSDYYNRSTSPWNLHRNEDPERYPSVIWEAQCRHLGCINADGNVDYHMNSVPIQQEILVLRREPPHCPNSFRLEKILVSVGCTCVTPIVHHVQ

Structure (SMILES)	IC50 [1] [nM]	IC50 [2] [nM]
CC(C)n1ncnc1C(=O)N[C@H](c1cn2ccc([C@@H](NC(=O)CC3CC(F)(F)C3)C3CC3)nc2n1)C1CCC(F)(F)CC1 [Example 14, N—((S)-(7-((S)-Cyclopropyl(2-(3,3-difluorocyclobutyl)acetamido)methyl)imidazo[1,2-a]pyrimidin-2-yl)(4,4-difluorocyclohexyl)methyl)-1-isopropyl-1H-1,2,4-triazole-5-carboxamide]	17000	> 20000
O=C(CC1CC(F)(F)C1)N[C@H](c1ccn2cc([C@@H](NC(=O)c3ncnn3CC3CC3)C3CCC(F)(F)CC3)nc2n1)C1CC1 [Example 16, N—((S)-(7-((S)-Cyclopropyl(2-(3,3-difluorocyclobutyl)acetamido)methyl)imidazo[1,2-a]pyrimidin-2-yl)(4,4-difluorocyclohexyl)methyl)-1-(cyclopropylmethyl)-1H-1,2,4-triazole-5-carboxamide]	12000	> 20000
Cc1nonc1C(=O)N[C@H](c1cn2ccc([C@@H](NC(=O)CC3CC(F)(F)C3)C3CC3)nc2n1)C1CCC(F)(F)CC1 [Example 22, N—((S)-(7-((S)-Cyclopropyl(2-(3,3-difluorocyclobutyl)acetamido)methyl)imidazo[1,2-a]pyrimidin-2-yl)(4,4-difluorocyclohexyl)methyl)-4-methyl-1,2,5-oxadiazole-3-carboxamide]	6200	> 20000
O=C(CC1CC(F)(F)C1)N[C@H](c1ccn2cc([C@@H](NC(=O)c3conc3C3CC3)C3CCC(F)(F)CC3)nc2n1)C1CC1 [Example 27, 3-Cyclopropyl-N—((S)-(7-((S)-cyclopropyl(2-(3,3-difluorocyclobutyl)acetamido)methyl)imidazo[1,2-a]pyrimidin-2-yl)(4,4-difluorocyclohexyl)methyl)isoxazole-4-carboxamide]	3800	2600
O=C(CC1CC(F)(F)C1)N[C@H](c1ccn2cc([C@@H](NC(=O)c3ccnc(CC(F)(F)F)c3)C3CCC(F)(F)CC3)nc2n1)C1CC1 [Example 28, N—((S)-(7-((S)-Cyclopropyl(2-(3,3-difluorocyclobutyl)acetamido)methyl)imidazo[1,2-a]pyrimidin-2-yl)(4,4-difluorocyclohexyl)methyl)-2-(2,2,2-trifluoroethyl)isonicotinamide]	5400	1200
O=C(CC1CC(F)(F)C1)N[C@H](c1ccn2cc([C@@H](NC(=O)c3conc3CCC(F)(F)F)C3CCC(F)(F)CC3)nc2n1)C1CC1 [Example 29, N—((S)-(7-((S)-Cyclopropyl(2-(3,3-difluorocyclobutyl)acetamido)methyl)imidazo[1,2-a]pyrimidin-2-yl)(4,4-difluorocyclohexyl)methyl)-3-(3,3,3-trifluoropropyl)isoxazole-4-carboxamide]	2300	2600
O=C(CCC(F)(F)F)N[C@H](c1ccn2cc([C@@H](NC(=O)c3cnn(CC4CC4)n3)C3CCC(F)(F)CC3)nc2n1)C1CC1 [Example 31, N—((S)-(7-((S)-Cyclopropyl(4,4,4-trifluorobutanamido)methyl)imidazo[1,2-a]pyrimidin-2-yl)(4,4-difluorocyclohexyl)methyl)-2-(cyclopropylmethyl)-2H-1,2,3-triazole-4-carboxamide]	3000	> 20000
O=C(CCC(F)(F)F)N[C@H](c1ccn2cc([C@@H](NC(=O)c3ncnn3CC3CC3)C3CCC(F)(F)CC3)nc2n1)C1CC1 [Example 33, N—((S)-(7-((S)-Cyclopropyl(4,4,4-trifluorobutanamido)methyl)imidazo[1,2-a]pyrimidin-2-yl)(4,4-difluorocyclohexyl)methyl)-1-(cyclopropylmethyl)-1H-1,2,4-triazole-5-carboxamide]	8700	> 20000

These reach a lower IC50 [1]. Values come first.

IC50 [1] [nM]	Structure (SMILES)	IC50 [2] [nM]
1400	O=C(CCC(F)(F)F)N[C@H](c1ccn2cc([C@@H](NC(=O)c3conc3C3CC3)C3CCC(F)(F)CC3)nc2n1)C1CC1 [Example 37, 3-Cyclopropyl-N—((S)-(7-((S)-cyclopropyl(4,4,4-trifluorobutanamido)methyl)imidazo[1,2-a]pyrimidin-2-yl)(4,4-difluorocyclohexyl)methyl)isoxazole-4-carboxamide]	> 20000
810	CC(C)n1nccc1C(=O)N[C@H](c1nc2nc([C@H](NC(=O)CCC(F)(F)F)C3CC3)ccn2c1F)C1CCC(F)(F)CC1 [Example 35, N—((S)-(7-((R)-Cyclopropyl(4,4,4-trifluorobutanamido)methyl)-3-fluoroimidazo[1,2-a]pyrimidin-2-yl)(4,4-difluorocyclohexyl)methyl)-1-isopropyl-1H-pyrazole-5-carboxamide]	950
310	O=C(CC1CC(F)(F)C1)N[C@@H](c1ccn2cc([C@@H](NC(=O)c3ccnc(CC(F)(F)F)c3)C3CCC(F)(F)CC3)nc2n1)C1CC1 [Example 25, N—((S)-(7-((R)-Cyclopropyl(2-(3,3-difluorocyclobutyl)acetamido)methyl)imidazo[1,2-a]pyrimidin-2-yl)(4,4-difluorocyclohexyl)methyl)-2-(2,2,2-trifluoroethyl)isonicotinamide]	210
290	O=C(CC1CC(F)(F)C1)N[C@@H](c1ccn2cc([C@@H](NC(=O)c3ncnn3CC3CC3)C3CCC(F)(F)CC3)nc2n1)C1CC1 [Example 15, N—((S)-(7-((R)-Cyclopropyl(2-(3,3-difluorocyclobutyl)acetamido)methyl)imidazo[1,2-a]pyrimidin-2-yl)(4,4-difluorocyclohexyl)methyl)-1-(cyclopropylmethyl)-1H-1,2,4-triazole-5-carboxamide]	1400
240	O=C(CCC(F)(F)F)N[C@@H](c1ccn2cc([C@@H](NC(=O)c3cnn(CC4CC4)n3)C3CCC(F)(F)CC3)nc2n1)C1CC1 [Example 34, N—((S)-(7-((R)-Cyclopropyl(4,4,4-trifluorobutanamido)methyl)imidazo[1,2-a]pyrimidin-2-yl)(4,4-difluorocyclohexyl)methyl)-2-(cyclopropylmethyl)-2H-1,2,3-triazole-4-carboxamide]	580
220	O=C(CCC(F)(F)F)N[C@@H](c1ccn2cc([C@@H](NC(=O)c3conc3C3CC3)C3CCC(F)(F)CC3)nc2n1)C1CC1 [Example 36, 3-Cyclopropyl-N—((S)-(7-((R)-cyclopropyl(4,4,4-trifluorobutanamido)methyl)imidazo[1,2-a]pyrimidin-2-yl)(4,4-difluorocyclohexyl)methyl)isoxazole-4-carboxamide]	190
180	O=C(CC1CC(F)(F)C1)N[C@@H](c1ccn2cc([C@@H](NC(=O)c3conc3C3CC3)C3CCC(F)(F)CC3)nc2n1)C1CC1 [Example 24, 3-Cyclopropyl-N—((S)-(7-((R)-cyclopropyl(2-(3,3-difluorocyclobutyl)acetamido)methyl)imidazo[1,2-a]pyrimidin-2-yl)(4,4-difluorocyclohexyl)methyl)isoxazole-4-carboxamide]	180
170	O=C(CCC(F)(F)F)N[C@@H](c1ccn2cc([C@@H](NC(=O)c3ncnn3CC3CC3)C3CCC(F)(F)CC3)nc2n1)C1CC1 [Example 32, N—((S)-(7-((R)-Cyclopropyl(4,4,4-trifluorobutanamido)methyl)imidazo[1,2-a]pyrimidin-2-yl)(4,4-difluorocyclohexyl)methyl)-1-(cyclopropylmethyl)-1H-1,2,4-triazole-5-carboxamide]	520
130	Cc1nonc1C(=O)N[C@H](c1cn2ccc([C@H](NC(=O)CCC(F)(F)F)C3CC3)nc2n1)C1CCC(F)(F)CC1 [Example 23, N—((S)-(7-((R)-Cyclopropyl(4,4,4-trifluorobutanamido)methyl)imidazo[1,2-a]pyrimidin-2-yl)(4,4-difluorocyclohexyl)methyl)-4-methyl-1,2,5-oxadiazole-3-carboxamide]	520
130	O=C(CC1CC(F)(F)C1)N[C@@H](c1ccn2cc([C@@H](NC(=O)c3conc3CCC(F)(F)F)C3CCC(F)(F)CC3)nc2n1)C1CC1 [Example 26, N—((S)-(7-((R)-Cyclopropyl(2-(3,3-difluorocyclobutyl)acetamido)methyl)imidazo[1,2-a]pyrimidin-2-yl)(4,4-difluorocyclohexyl)methyl)-3-(3,3,3-trifluoropropyl)isoxazole-4-carboxamide]	110
110	O=C(CCC(F)(F)F)N[C@@H](c1ccn2cc([C@@H](NC(=O)c3conc3CCC(F)(F)F)C3CCC(F)(F)CC3)nc2n1)C1CC1 [Example 30, N—((S)-(7-((R)-Cyclopropyl(4,4,4-trifluorobutanamido)methyl)imidazo[1,2-a]pyrimidin-2-yl)(4,4-difluorocyclohexyl)methyl)-3-(3,3,3-trifluoropropyl)isoxazole-4-carboxamide]	74
99	Cc1nonc1C(=O)N[C@H](c1cn2ccc([C@H](NC(=O)CC3CC(F)(F)C3)C3CC3)nc2n1)C1CCC(F)(F)CC1 [Example 21, N—((S)-(7-((R)-Cyclopropyl(2-(3,3-difluorocyclobutyl)acetamido)methyl)imidazo[1,2-a]pyrimidin-2-yl)(4,4-difluorocyclohexyl)methyl)-4-methyl-1,2,5-oxadiazole-3-carboxamide]	590
